The text below walks through data of patent US20170128059A1, “METHODS AND APPARATUS FOR PREVENTION OF SURGICAL SITE INFECTIONS” (priority 2015, published 2017).

The subject of data set [1] is gram-negative bacteria present in colorectal surgeries. Conditions: required to neutralize gram-negative bacteria present in colorectal surgeries; cited from earlier work.
Data set [2] in a line: serum and wound tissue gentamicin concentration by ELISA after local delivery through the surgical device. Conditions: E-F group.
Procedure: The 7 pigs were divided into two groups each: 1. Control (n=1) where no device was used and a sham procedure was performed. 2. “Experimental-No Fluid” (E-NF) group (n=3) where the surgical device was used without any irrigation delivered through the device in order to mimic conditions with other non-irrigating surgical retractors. 3. […] The irrigation fluid was delivered via gravity drainage from an IV bag hung on a pole at a height of 6 feet, and removal of fluid from the device was achieved via wall suction into a standard surgical canister. Both the fluid delivery and fluid removal mechanisms were integrated into the surgical device via separate tubing connections. The total time of irrigation averaged approximately 4 hours.
Experimental data was collected at two time points. Time 1 was after 4 hours of simulated surgery and/or irrigation and at the time of device removal. Time 2 was 4 hours after wound closure (e.g. at the time of wound reopening).
In the E-F group, peripheral blood samples were drawn by the anesthetists at Times 1 and 2. The blood was collected in serum-separator tubes and centrifuged. […] Two 4 mm×8 mm punch biopsies at each time point were taken, homogenized, and diluted in 1 mL phosphate buffered saline (PBS). The sample was centrifuged, and the supernatant was isolated for ELISA analysis.
The conditions of data set [3]: intravenous administration, 240 mg; cited from earlier work.
Data set [4] is described as follows: finite-element (COMSOL) simulation of local gentamicin delivery to a retracted surgical wound. Conditions: calculated model parameter, adipose wound tissue. The text has this: In order to better understand the differences between systemic delivery and local delivery of therapeutic agents, a finite-element analysis software package (COMSOL) was used to generate a three dimensional (3D) model of a retracted surgical wound with a 12 cm incision. […] The 3D model shown in FIG. 23 was modeled in a Computer Aided Design (CAD) package (Solidworks) based on the geometry of the device and the retracted wound tissue in a cadaver.
Gentamicin, a member of the aminoglycoside family, was used as the antibiotic in the model due to its prevalence in clinical use to combat the enteric, gram-negative bacteria that cause wound infections. A concentration of 240 mg/L was delivered during the simulated 4 hr surgery based on standard clinical protocols.
where Φ, D, and C are the particle flux, diffusion coefficient, and concentration, respectively. […]
The diffusion coefficients of various solutes and solvents have been experimentally obtained and published. However, for solute-solvent combinations that have not been published or experimentally determined, the molecular weight of a given solute may be correlated to the diffusion coefficient in the same solvent using a logarithmic relation. […]
The simulation was run for four hours to mimic a standard colorectal procedure and the antibiotic flux and tissue concentration was recorded at each time step.

The subject of data set [5] is E. coli. Briefly: acute abdominal surgical model with E. coli contamination, quantitative wound tissue culture. To be noted: E-F group. The format is in vivo, pigs. Here is the method:
In the gentamicin group, the degree of systemic absorption of the antibiotic was quantified.
Seven female adult pigs weighing 50-70 kg were placed under general anesthesia and monitored for the duration of the experimental protocol. The abdomen was shaved, sterilely prepped with chlorhexidine solution, and draped under sterile conditions. A 12-cm periumbilical midline incision was made and the abdominal cavity was entered. After approximately 2.5 hours of wound retraction to simulate a prototypical length of time for colonic dissection, a gentamicin-sensitive E. coli suspension at a standardized concentration of 10^9 colony-forming units (CFU) in 10 mL normal saline was dripped onto the central colon. E. coli is classified as an enteric bacteria species. […]
FIGS. 28A-28B show the locations at which two swab samples were taken just prior to device removal (e.g. at Time 1). […] Colonies were identified as E. coli, enumerated, and recorded, and the results for serial dilutions were internally validated. […] Tissue culture results were expressed as colony-forming units (CFU) per gram. […]
Quantitative culture results were expressed in mean±standard deviation (SD). Statistical comparisons of quantitative culture results were performed using the Student's t-test. Significance was determined based on a value of p<0.05.

The test system of data set [6] is E. coli. Conditions: cited from earlier work.
The test system of data set [7] is E. coli. Briefly: minimum inhibitory concentration of gentamicin, E. coli. The data set is classed as cell-based. The source says: The extent of absorption of a fluid or solute into the tissue may be a function of the rate of fluid delivery, concentration of solutes (if any) in the delivered fluid, physical characteristics of the solutes (if any), the porosity of the tissue, tortuousity of the tissue, systemic absorption via the capillary bed and subsequent renal clearance, and/or the time period over which the surgical device and delivered fluid are in contact with the wound tissues. […] The minimum inhibitory concentration (16 mg/L) was reached are the wound surface in about 3 minutes of fluid delivery. […] The surgical device may thus be able to reduce microbial growth in wounds even after being removed, which may result in a lower risk of developing a surgical site infection.
The surgical device may be used to deliver a therapeutic fluid to a wound tissue to maintain a constant therapeutic concentration in the tissue. The therapeutic concentration in the tissue may be maintained for a portion of or the entire duration of the surgical procedure. The concentration of the therapeutic agent (e.g. antibiotic) may be maintained within a pre-determined range. The pre-determined concentration may depend on the type of therapeutic used as described herein. […] The therapeutic concentration may be at or above the minimum inhibitory concentration. […]

With gentamicin, the “minimum inhibitory concentration (MIC)” value in data set [1] is reported as 0.003 mol/m^3. Moreover, the “gentamicin concentration at the wound margins (tissue)” value in data set [2] (Time 1, punch biopsies of subcutaneous fat) came to 0.97 ± 0.33 mg/kg; in data set [2] (Time 2, punch biopsies of subcutaneous fat) it was 0.60 ± 0.37 mg/kg. The “peak tissue concentration relative to minimum inhibitory concentration” value in data set [3] is reported as 4.5 times. In data set [3], the “time of peak tissue concentration after administration” value is reported as “roughly 20 minutes”. Moreover, the “Effective Diffusion Coefficient” value in data set [4] is recorded as 1.88E−6 cm^2/s. In addition, the “quantitative wound culture (E. coli) in tissue sample” value in data set [5] (240 mg gentamicin sulfate in 1 L saline through device, Time 1 (device removal)) is recorded as 1.25±1.55×10^2 CFU/gm; in data set [5] (Time 2 (4 hours after wound closure)) it was 2.08±3.01×10^2 CFU/gm. Besides, the minimum inhibitory concentration in data set [6] is 16 µg/mL. The “delivered fluid concentration (240 mg/L) relative to typical minimum inhibitory concentration of E. coli” value in data set [7] is on record as “about 60 time greater”.
